Experimental data taken from patent publication US20150087673A1, “METHODS FOR USING AND BIOMARKERS FOR AMPK-ACTIVATING COMPOUNDS” (RIGEL PHARMACEUTICALS, INC., priority 2013, published 2015).
pEC50: −log10 of the molar value.

Test system: AMPK
Test: AMPK activation assay (enzyme-linked immunosorbent assay)
Assay type: cell-based
Summary of the method: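 Activation by each compound is measured using a conventional commercial immunoassay kit.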

pEC50	Structure (SMILES)
> 6.30	N#Cc1ccc(CN2CCC(NC(=O)c3ccc(N4CCC(C(=O)c5ccc(Cl)cc5)CC4)cn3)CC2)cc1 [Compound 266, 5-(4-(4-chlorobenzoyl)piperidin-1-yl)-N-(1-(4-cyanobenzyl)piperidin-4-yl)picolinamide]
> 6.30	N#Cc1ccc(CN2CCC(NC(=O)c3ccc(NC4CCN(c5ccc(C#N)cc5)CC4)cn3)CC2)cc1 [Compound 267, N-(1-(4-cyanobenzyl)piperidin-4-yl)-5-(1-(4-cyanophenyl)piperidin-4-ylamino)picolinamide]
> 6.30	N#Cc1ccc(CN2CCC(NC(=O)c3ccc(C(=O)N4CCC(Oc5ccncc5)CC4)cn3)CC2)cc1 [Compound 269, N-(1-(4-cyanobenzyl)piperidin-4-yl)-5-(4-(pyridin-4-yloxy)piperidine-1-carbonyl)picolinamide]
> 6.30	N#Cc1ccc(CN2CCC(NC(=O)c3ccc(C(=O)N4CC[C@H](Oc5ccc(F)cc5)C4)cn3)CC2)cc1 [Compound 270, (S)-N-(1-(4-cyanobenzyl)piperidin-4-yl)-5-(3-(4-fluorophenoxy)pyrrolidine-1-carbonyl)picolinamide]
> 6.30	N#Cc1ccc(CN2CCC(NC(=O)c3ccc(C(=O)N4CCC(C(=O)c5ccc(F)cc5F)CC4)cn3)CC2)cc1 [Compound 271, N-(1-(4-cyanobenzyl)piperidin-4-yl)-5-(4-(2,4-difluorobenzoyl)piperidine-1-carbonyl)picolinamide]
> 6.30	O=C(Nc1ccc(Oc2ccc(F)cc2)nc1)c1ccc(C(=O)N2CCC(C(=O)c3ccc(F)cc3)CC2)cn1 [Compound 272, 5-(4-(4-fluorobenzoyl)piperidine-1-carbonyl)-N-(6-(4-fluorophenoxy)pyridin-3-yl)picolinamide]
> 6.30	O=C(Nc1ccc(Oc2ccc(F)cc2)nc1)c1ccc(C(=O)N2CCC(Oc3ccc(F)cc3)CC2)cn1 [Compound 273, 5-(4-(4-fluorophenoxy)piperidine-1-carbonyl)-N-(6-(4-fluorophenoxy)pyridin-3-yl)picolinamide]
< 5.00	COc1ccc(OC2CCCN(C(=O)c3ccc(C(=O)NC4CCN(Cc5ccc(C#N)cc5)CC4)nc3)C2)cc1 (stereo not drawn) [Compound 274, N-(1-(4-cyanobenzyl)piperidin-4-yl)-5-(3-(4-methoxyphenoxy)piperidine-1-carbonyl)picolinamide]
> 6.30	COc1ccc(N2CCC(Nc3ccc(C(=O)NC4CCN(Cc5ccc(C#N)cc5)CC4)nc3)CC2)cc1 [Compound 275, N-(1-(4-cyanobenzyl)piperidin-4-yl)-5-(1-(4-methoxyphenyl)piperidin-4-ylamino)picolinamide]
> 6.30	N#Cc1ccc(CN2CCC(NC(=O)c3ccc(NC4CCN(c5ccc(F)cc5)CC4)cn3)CC2)cc1 [Compound 276, N-(1-(4-cyanobenzyl)piperidin-4-yl)-5-(1-(4-fluorophenyl)piperidin-4-ylamino)picolinamide]
> 6.30	COc1cccc(OC2CCCN(C(=O)c3ccc(C(=O)NC4CCN(Cc5ccc(C#N)cc5)CC4)nc3)C2)c1 (stereo not drawn) [Compound 277, N-(1-(4-cyanobenzyl)piperidin-4-yl)-5-(3-(3-methoxyphenoxy)piperidine-1-carbonyl)picolinamide]
> 6.30	N#Cc1ccc(CN2CCC(NC(=O)c3ccc(C(=O)N4CC[C@@H](Oc5ccc(F)cc5)C4)cn3)CC2)cc1 [Compound 278, (R)-N-(1-(4-cyanobenzyl)piperidin-4-yl)-5-(3-(4-fluorophenoxy)pyrrolidine-1-carbonyl)picolinamide]
> 6.30	N#Cc1ccc(CN2CCC(NC(=O)c3ccc(C(=O)N4CCC(C(=O)c5ccc(F)c(F)c5)CC4)cn3)CC2)cc1 [Compound 281, N-(1-(4-cyanobenzyl)piperidin-4-yl)-5-(4-(3,4-difluorobenzoyl)piperidine-1-carbonyl)picolinamide]
> 6.30	N#Cc1ccc(CN2CCC(NC(=O)c3ccc(C(=O)N4CCC(Oc5ccc(F)cc5F)CC4)cn3)CC2)cc1 [Compound 282, N-(1-(4-cyanobenzyl)piperidin-4-yl)-5-(4-(2,4-difluorophenoxy)piperidine-1-carbonyl)picolinamide]
> 6.30	N#Cc1ccc(CN2CCC(NC(=O)c3ccc(C(=O)N4CCC(Oc5cccnc5)CC4)cn3)CC2)cc1 [Compound 283, N-(1-(4-cyanobenzyl)piperidin-4-yl)-5-(4-(pyridin-3-yloxy)piperidine-1-carbonyl)picolinamide]
> 6.30	CCOC(=O)c1ccc(OC2CCN(C(=O)c3ccc(C(=O)NC4CCN(Cc5ccc(C#N)cc5)CC4)nc3)CC2)cc1 [Compound 284, ethyl 4-(1-(6-(1-(4-cyanobenzyl)piperidin-4-ylcarbamoyl)nicotinoyl)piperidin-4-yloxy)benzoate]

pEC50	Structure (SMILES)
> 6.30	COc1ccc(CN2CCC(NC(=O)c3ccc(C(=O)N4CCN(Cc5ccc(C#N)cc5)CC4)cn3)CC2)cc1 [Compound 285, 5-(4-(4-cyanobenzyl)piperazine-1-carbonyl)-N-(1-(4-methoxybenzyl)piperidin-4-yl)picolinamide]
> 6.30	COc1cc(C#N)ccc1OC1CCN(c2ccc(C(=O)NC3CCN(Cc4ccc(C#N)cc4)CC3)nc2)CC1 [Compound 286, 5-(4-(4-cyano-2-methoxyphenoxy)piperidin-1-yl)-N-(1-(4-cyanobenzyl)piperidin-4-yl)picolinamide]
> 6.30	COc1ccc(C(=O)C2CCN(C(=O)c3ccc(C(=O)NC4CCN(Cc5cc(F)cc(F)c5)CC4)nc3)CC2)cc1 [Compound 287, N-(1-(3,5-difluorobenzyl)piperidin-4-yl)-5-(4-(4-methoxybenzoyl)piperidine-1-carbonyl)picolinamide]
> 6.30	O=C(NC1CCN(Cc2cc(F)cc(F)c2)CC1)c1ccc(C(=O)N2CCC(C(=O)c3ccc(F)cc3)CC2)cn1 [Compound 288, N-(1-(3,5-difluorobenzyl)piperidin-4-yl)-5-(4-(4-fluorobenzoyl)piperidine-1-carbonyl)picolinamide]
> 6.30	N#Cc1ccc(OC2CCN(C(=O)c3ccc(C(=O)NC4CCN(Cc5cc(F)cc(F)c5)CC4)nc3)CC2)cc1 [Compound 289, 5-(4-(4-cyanophenoxy)piperidine-1-carbonyl)-N-(1-(3,5-difluorobenzyl)piperidin-4-yl)picolinamide]
> 6.30	CC(C)(C)OC(=O)NCCCc1cc(C(=O)N2CCN(Cc3ccc(F)cc3)CC2)cnc1C(=O)NC1CCN(Cc2ccc(C#N)cc2)CC1 [Compound 290, tert-butyl 3-(2-(1-(4-cyanobenzyl)piperidin-4-ylcarbamoyl)-5-(4-(4-fluorobenzyl)piperazine-1-carbonyl)pyridin-3-yl)propylcarbamate]
> 6.30	N#Cc1ccc(CN2CCC(NC(=O)c3ncc(C(=O)N4CCN(Cc5ccc(F)cc5)CC4)cc3CCCNC(=O)CCOCCOCCOCCOCCNC(=O)CCCC[C@@H]3SC[C@@H]4NC(=O)N[C@@H]43)CC2)cc1 [Compound 291, N-(1-(4-cyanobenzyl)piperidin-4-yl)-3-(5,21-dioxo-25-((3aS,4S,6aR)-2-oxohexahydro-1H-thieno[3,4-d]imidazol-4-yl)-8,11,14,17-tetraoxa-4,20-diazapentacosyl)-5-(4-(4-fluorobenzyl)piperazine-1-carbonyl)picolinamide]
> 6.30	O=C(NC1CCN(Cc2cc(F)cc(F)c2)CC1)c1ccc(C(=O)N2CC[C@H](Oc3ccc(F)cc3)C2)cn1 [Compound 292, N-(1-(3,5-difluorobenzyl)piperidin-4-yl)-5-((S)-3-(4-fluorophenoxy)pyrrolidine-1-carbonyl)picolinamide]
> 6.30	Cc1ccc(OC2CCN(C(=O)c3ccc(C(=O)NC4CCN(Cc5cc(F)cc(F)c5)CC4)nc3)CC2)cc1 [Compound 293, N-(1-(3,5-difluorobenzyl)piperidin-4-yl)-5-(4-(p-tolyloxy)piperidine-1-carbonyl)picolinamide]
> 6.30	O=C(NC1CCN(Cc2cc(F)cc(F)c2)CC1)c1ccc(C(=O)N2CCC(Oc3ccc(C(F)(F)F)cc3)CC2)cn1 [Compound 294, N-(1-(3,5-difluorobenzyl)piperidin-4-yl)-5-(4-(4-(trifluoromethyl)phenoxy)piperidine-1-carbonyl)picolinamide]
> 6.30	O=C(NC1CCN(Cc2cc(F)cc(F)c2)CC1)c1ccc(C(=O)N2CCC(Oc3ccc(F)cc3)CC2)cn1 [Compound 295, N-(1-(3,5-difluorobenzyl)piperidin-4-yl)-5-(4-(4-fluorophenoxy)piperidine-1-carbonyl)picolinamide]
> 6.30	COc1ccc(OC2CCN(C(=O)c3ccc(C(=O)NC4CCN(Cc5cc(F)cc(F)c5)CC4)nc3)CC2)cc1 [Compound 296, N-(1-(3,5-difluorobenzyl)piperidin-4-yl)-5-(4-(4-methoxyphenoxy)piperidine-1-carbonyl)picolinamide]
> 6.30	O=C(NC1CCN(Cc2cc(F)cc(F)c2)CC1)c1ccc(C(=O)N2CCC(Oc3ccc(F)c(F)c3)CC2)cn1 [Compound 297, N-(1-(3,5-difluorobenzyl)piperidin-4-yl)-5-(4-(3,4-difluorophenoxy)piperidine-1-carbonyl)picolinamide]
> 6.30	O=C(NC1CCN(Cc2cc(F)cc(F)c2)CC1)c1ccc(C(=O)N2CCC(C(=O)c3ccc(F)c(F)c3)CC2)cn1 [Compound 298, 5-(4-(3,4-difluorobenzoyl)piperidine-1-carbonyl)-N-(1-(3,5-difluorobenzyl)piperidin-4-yl)picolinamide]
> 6.30	O=C(N[C@H]1CC[C@@H](Oc2cc(F)cc(F)c2)CC1)c1ccc(C(=O)N2CCC(Oc3ccc(F)cc3)CC2)cn1 [Compound 299, N-((cis)-4-(3,5-difluorophenoxy)cyclohexyl)-5-(4-(4-fluorophenoxy)piperidine-1-carbonyl)picolinamide]
> 6.30	COc1ccc(C(=O)C2CCN(C(=O)c3ccc(C(=O)N[C@H]4CC[C@@H](Oc5cc(F)cc(F)c5)CC4)nc3)CC2)cc1 [Compound 300, N-((cis)-4-(3,5-difluorophenoxy)cyclohexyl)-5-(4-(4-methoxybenzoyl)piperidine-1-carbonyl)picolinamide]

Structure (SMILES)	pEC50
N#Cc1ccc(CN2CCC(NC(=O)c3ccc(C(=O)N4C5CCC4CC(Oc4ccc(C#N)cc4)C5)cn3)CC2)cc1 [Compound 280, N-(1-(4-cyanobenzyl)piperidin-4-yl)-5-((1R,3r,5S)-3-(4-cyanophenoxy)-8-azabicyclo[3.2.1]octane-8-carbonyl)picolinamide]	> 6.30
